Test results: patent publication US20230416239A1, “COMPOUNDS AND METHODS FOR TREATING A CYTOKINE-MEDIATED DISEASE” (CONSERVATOIRE NATIONAL DES ARTS ET MÉTIERS, priority 2020, published 2023)
pIC50: −log10 of the molar value.

Assays:
TNFα = TNFα (Homo sapiens, UniProt P01375); assay: Immunoassay binding test, TNFa; conditions: compounds 100 to 0.78 μM; TNFα 10 ng/ml, receptor 100 ng/ml; read-out: BINDING TNF IC50
Protocol: Microtiter plates (96 wells) are covered with 100 μl of receptor per well, and incubated overnight at 4° C. The following day, after 2 washes in PBS/Tween20, the plates are saturated with 150 μl of PBS/BSA 2% per well, for 2 h at 37° C. […] The cytokine is diluted in series (six concentrations) in a final volume of 120 μl per well. […] The different mixtures are incubated for 2 h at 37° C. 100 μl of each mixture are then transferred to the microtiter plate, respecting the plate plan previously defined and incubated overnight at 4° C. After three washes, 100 μl of biotinylated anti-cytokine secondary antibody are added to each well, then incubated for 2 h at 37° C. After three washes, 100 μl of Avidin-HRP (1/500th dilution) are added and incubated for 30 minutes at 37° C. […] The plates are then read with a spectrophotometer at 450 nm, measuring the optical density for each well.
(§1) This binding test is carried out with different cytokines: TNFa, IL-4, IL-6 and IL-13. For IL-6, the incubation of molecules with the cytokine also requires the presence of IL-6Ra at a final concentration of 200 ng/ml.
(§2) The final concentrations used for each of the cytokines are presented below: […]

TNFa/TNFRI interaction = TNFa/TNFRI interaction (Homo sapiens, UniProt P01375); assay: TNFa/TNFRI interaction displacement test; assay type: binding; conditions: compounds at 50 μM; human TNFRI 100 ng/ml
Protocol: Microtiter plates (96 wells) are covered with 100 μl per well of human TNFRI, at a concentration of 100 ng/ml, then incubated overnight at 4° C. The following day, after two washes in PBS/Tween20, the plates are saturated with 150 μl of PBS/BSA 2% for 2 h at 37° C.
100 μl of each mixture are then transferred to the microtiter plate, respecting the established plate plan and incubated overnight at 4° C.
After three washes, 100 μl of biotinylated anti-cytokine secondary antibody are added to each well and incubated for 2 h at 37° C. After three washes, 100 Avl Avidin-HRP (dilution 1/500th) are added and incubated for 30 minutes at 37° C. […] The plates are then read with a spectrophotometer at 450 nm, measuring the optical density (OD) for each well.

IL-6 = IL-6 (Homo sapiens, UniProt P05231); assay: Immunoassay binding test, IL-6 (gp130 receptor, IL-6Ra present); conditions: IL-6Ra 200 ng/ml
Protocol: (§3) Microtiter plates (96 wells) are covered with 100 μl of receptor per well, and incubated overnight at 4° C. The following day, after 2 washes in PBS/Tween20, the plates are saturated with 150 μl of PBS/BSA 2% per well, for 2 h at 37° C. Synthetic compounds are diluted in series (final concentrations: 100 to 0.78 μM) then a fixed amount of cytokine in PBS/BSA 1% is added to the compounds, in a final volume of 120 μl per well. […] The cytokine is diluted in series (six concentrations) in a final volume of 120 μl per well. The cytokine is used in the absence of small molecule as well as the range of SPD304 as positive controls and the absence of cytokine and synthetic molecule as negative control. The different mixtures are incubated for 2 h at 37° C. 100 μl of each mixture are then transferred to the microtiter plate, respecting the plate plan previously defined and incubated overnight at 4° C. After three washes, 100 μl of biotinylated anti-cytokine secondary antibody are added to each well, then incubated for 2 h at 37° C. After three washes, 100 μl of Avidin-HRP (1/500th dilution) are added and incubated for 30 minutes at 37° C. […] The plates are then read with a spectrophotometer at 450 nm, measuring the optical density for each well.
as §1, §2

IL-4 = biological target: T1, IL-4 (Homo sapiens, UniProt P05112); assay: Immunoassay binding test, IL-4; conditions: for pIC50: IL-4 400 ng/ml, receptor 100 ng/ml, read-out: BINDING IL4 IC50
T1 sequence (P05112 25-153): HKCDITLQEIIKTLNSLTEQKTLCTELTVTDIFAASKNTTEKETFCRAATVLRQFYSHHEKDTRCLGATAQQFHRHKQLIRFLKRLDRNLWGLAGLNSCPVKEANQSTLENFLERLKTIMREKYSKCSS
Protocol: as §3, §1, §2

IL-13 = IL-13 (Homo sapiens, UniProt P35225); assay: Immunoassay binding test, IL-13; conditions: for pIC50: IL-13 400 ng/ml, receptor 100 ng/ml, read-out: BINDING IL13 IC50
Protocol: Microtiter plates (96 wells) are covered with 100 μl of receptor per well, and incubated overnight at 4° C. The following day, after 2 washes in PBS/Tween20, the plates are saturated with 150 μl of PBS/BSA 2% per well, for 2 h at 37° C. Synthetic compounds are diluted in series (final concentrations: 100 to 0.78 μM) then a fixed amount of cytokine in PBS/BSA 1% is added to the compounds, in a final volume of 120 μl per well. […] The cytokine is diluted in series (six concentrations) in a final volume of 120 μl per well. […] The different mixtures are incubated for 2 h at 37° C. 100 μl of each mixture are then transferred to the microtiter plate, respecting the plate plan previously defined and incubated overnight at 4° C. After three washes, 100 μl of biotinylated anti-cytokine secondary antibody are added to each well, then incubated for 2 h at 37° C. After three washes, 100 μl of Avidin-HRP (1/500th dilution) are added and incubated for 30 minutes at 37° C. […] The plates are then read with a spectrophotometer at 450 nm, measuring the optical density for each well.
as §1, §2

Chain of IL-13 (P35225 25-146, species assumed): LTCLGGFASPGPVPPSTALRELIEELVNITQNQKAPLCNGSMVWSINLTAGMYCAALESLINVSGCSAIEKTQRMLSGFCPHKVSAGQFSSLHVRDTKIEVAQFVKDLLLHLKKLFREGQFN
Chain of TNFα (P01375 77-233 limits assumed, species assumed): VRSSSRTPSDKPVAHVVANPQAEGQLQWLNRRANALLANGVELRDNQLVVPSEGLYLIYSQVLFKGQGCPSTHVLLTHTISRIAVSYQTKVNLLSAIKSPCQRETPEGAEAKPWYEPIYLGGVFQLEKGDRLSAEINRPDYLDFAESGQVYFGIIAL
Chain of TNFa/TNFRI interaction (P01375 77-233 limits assumed): as the sequence (P01375 77-233 limits assumed, species assumed) above
Chain of IL-6 (P05231 30-212, species assumed): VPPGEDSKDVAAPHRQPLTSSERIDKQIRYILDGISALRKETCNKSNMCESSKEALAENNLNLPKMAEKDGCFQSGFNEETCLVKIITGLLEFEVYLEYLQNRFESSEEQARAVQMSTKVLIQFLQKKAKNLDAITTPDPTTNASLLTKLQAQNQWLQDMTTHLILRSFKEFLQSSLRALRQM

pIC50 (TNFα)	Displacement (%) (TNFa/TNFRI interaction)	BINDING IL6 % Neutra at 100 μM (IL-6)	BINDING IL4 % Neutra at 100 μM (IL-4)	pIC50 (IL-4)	BINDING IL13 % Neutra at 100 μM (IL-13)	pIC50 (IL-13)	Structure (SMILES)
4.56	87%	0%	87.5%	4.79	35.8%	< 4.30	CN(CCCCN(Cc1ccn(S(=O)(=O)c2ccccc2)c1)Cc1cccnc1F)C1CCCCC1 [Compound 91, N1-cyclohexyl-N4-((2-fluoropyridin-3-yl)methyl)-N1-methyl-N4-((1-(phenylsulfonyl)-1H-pyrrol-3-yl)methyl)butane-1,4-diamine]
5.17	126%	1%	92.5%	5.68	89.1%	4.98	CN(CCCCCN(Cc1ccc(F)nc1)Cc1cn(S(=O)(=O)c2ccccc2)c2ccccc12)C1CCCCC1 [Compound 58]
4.84	125%	12.4%	96.6%	5.09	38.3%	< 4.30	CN(CCN(Cc1ccncc1)Cc1cn(S(=O)(=O)c2ccccc2)c2ccccc12)C1CCCCC1 [Compound 28]
5.30	188%	6%	92.6%	5.31	87.9%	< 4.30	O=S(=O)(c1ccccc1)n1cc(CN(CCCCN(C2CCC2)C2CCC2)Cc2cccnc2F)c2ccccc21 [Compound 86]
4.98	114%	0%	90.5%	5.12	86.5%	< 4.30	O=S(=O)(c1ccccc1)n1cc(CN(CCCCNC2CCCCC2)Cc2cccc(F)n2)c2ccccc21 [Compound 45, N1-cyclohexyl-N4-((6-fluoropyridin-2-yl)methyl)-N4-((1-(phenylsulfonyl)-1H-indol-3-yl)methyl)butane-1,4-diamine]
4.95	160%	0%	89.8%	5.55	91.3%	5.11	CCN(CCOCCN(Cc1cccnc1F)Cc1cn(S(=O)(=O)c2ccccc2)c2ccccc12)C1CCCCC1 [Compound 93, N-ethyl-N-(2-(2-(((2-fluoropyridin-3-yl)methyl)((1-(phenylsulfonyl)-1H-indol-3-yl)methyl)amino)ethoxy)ethyl)cyclohexanamine]
5.11	172%	–	–	–	–	–	O=S(=O)(c1ccccc1)n1cc(CN(CCCCNC2CCCCC2)Cc2ccc(F)nc2)c2ccccc21 [Compound 55, N1-cyclohexyl-N4-((6-fluoropyridin-3-yl)methyl)-N4-((1-(phenylsulfonyl)-1H-indol-3-yl)methyl)butane-1,4-diamine]
5.03	113%	–	–	–	–	–	CN(CCCCN(Cc1ccc(F)nc1)Cc1cn(S(=O)(=O)c2ccccc2)c2ccccc12)C1CCCCC1 [Compound 57, N1-cyclohexyl-N4-((6-fluoropyridin-3-yl)methyl)-N1-methyl-N4-((1-(phenylsulfonyl)-1H-indol-3-yl)methyl)butane-1,4-diamine]
4.89	245%	–	–	–	–	–	CN(CCOCCN(Cc1cccnc1F)Cc1cn(S(=O)(=O)N2CCCCC2)c2ccccc12)C1CCCCC1 [Compound 112, N-(2-(2-(((2-fluoropyridin-3-yl)methyl) ((1-(piperidin-1-ylsulfonyl)-1H-indol-3-yl)methyl)amino)ethoxy)ethyl)-N-methylcyclohexanamine]
5.22	224%	–	–	–	–	–	CN1CCN(S(=O)(=O)n2cc(CN(CCOCCN(C)C3CCCCC3)Cc3cccnc3F)c3ccccc32)CC1 [Compound 111, N-(2-(2-(((2-fluoropyridin-3-yl)methyl)((1-((4-methylpiperazin-1-yl)sulfonyl)-1H-indol-3-yl)methyl)amino)ethoxy)ethyl)-N-methylcyclohexanamine]
4.77	83%	–	–	–	–	–	CN(CCCCN(Cc1cccnc1F)Cc1cn(S(=O)(=O)N2CCCC2)c2ccccc12)C1CCCCC1 [Compound 110, N1-cyclohexyl-N4-((2-fluoropyridin-3-yl)methyl)-N1-methyl-N4-((1-(pyrrolidin-1-ylsulfonyl)-1H-indol-3-yl)methyl)butane-1,4-diamine]
5.17	219%	–	–	–	–	–	CCCN(CCCCN(Cc1cccnc1F)Cc1cn(S(=O)(=O)c2ccccc2)c2ccccc12)C1CCCCC1 [Compound 67, N′-cyclohexyl-N^4-((2-fluoropyridin-3-yl)methyl)-N^4-((1-(phenylsulfonyl)-1H-indol-3-yl)methyl)-N′-propylbutane-1,4-diamine]
5.07	109%	–	–	–	–	–	O=S(=O)(c1ccccc1)n1cc(CN(CCCCNC2CCCCC2)Cc2ccnc(F)c2)c2ccccc21 [Compound 44, N1-cyclohexyl-N4-((2-fluoropyridin-4-yl)methyl)-N4-((1-(phenylsulfonyl)-1H-indol-3-yl)methyl)butane-1,4-diamine]
4.53	64%	–	–	–	–	–	O=S(=O)(c1ccccc1)n1cc(CN(CCCCCNCc2ccnc(F)c2)Cc2ccnc(F)c2)c2ccccc21 [Compound 61]
5.10	154%	1%	92.8%	5.34	–	–	CN(CCCCN(Cc1cccnc1F)Cc1cn(S(=O)(=O)c2ccccc2)c2ccccc12)C1CCCCCCC1 [Compound 76, N′-cyclooctyl-N^4-((2-fluoropyridin-3-yl)methyl)-N′-methyl-N^4-((1-(phenylsulfonyl)-1H-indol-3-yl)methyl)butane-1,4-diamine]
4.97	124%	–	–	–	–	–	O=S(=O)(c1ccccc1)n1cc(CN(CCCCCNC2CCCCC2)Cc2cccnc2F)c2ccccc21 [Compound 46, N1-cyclohexyl-N5-((2-fluoropyridin-3-yl)methyl)-N5-((1-(phenylsulfonyl)-1H-indol-3-yl)methyl)pentane-1,5-diamine]
